Results reported in ChEMBL document CHEMBL5126631, “Chemo- and Site-Selective Lysine Modification of Peptides and Proteins under Native Conditions Using the Water-Soluble Zolinium” (J Med Chem, 2022).

Tests used:
[1] = target: T1, Replicase polyprotein 1ab (Severe acute respiratory syndrome coronavirus 2, UniProt P0DTD1); assay: Inhibition of SARS-CoV-2 3CLpro preincubated for 60 mins followed by addition of Dabcyl-KNSTLQSGLRKE-Edans fluorogenic peptide as substrate by FRET assay
[2] = target: T1, Replicase polyprotein 1ab; assay: Inhibition of SARS-CoV-2 3CLpro using Dabcyl-KNSTLQSGLRKE-Edans fluorogenic peptide as substrate by FRET assay
[3] = Drug localization in nucleus of human HepG2 cells by measuring quinolylated lysine residues at proteins at 20 uM measured after 24 hrs by nano LC/MS/MS analysis; format: ADME, cell-based; details: hepg2, 24 h
[4] = Drug localization in cell membrane of human HepG2 cells by measuring quinolylated lysine residues at proteins at 20 uM measured after 24 hrs by nano LC/MS/MS analysis; format: ADME, cell-based; details: hepg2, 24 h
[5] = Drug localization in cytoskeleton of human HepG2 cells by measuring quinolylated lysine residues at proteins at 20 uM measured after 24 hrs by nano LC/MS/MS analysis; format: ADME, cell-based; details: hepg2, 24 h
[6] = Drug localization in endosome of human HepG2 cells by measuring quinolylated lysine residues at proteins at 20 uM measured after 24 hrs by nano LC/MS/MS analysis; format: ADME, cell-based; details: hepg2, 24 h
[7] = Drug localization in cytoplasm of human HepG2 cells by measuring quinolylated lysine residues at proteins at 20 uM measured after 24 hrs by nano LC/MS/MS analysis; format: ADME, cell-based; details: hepg2, 24 h
[8] = Drug localization in mitochondria of human HepG2 cells by measuring quinolylated lysine residues at proteins at 20 uM measured after 24 hrs by nano LC/MS/MS analysis; format: ADME; details: hepg2, 24 h
[9] = Drug localization in cytosol of human HepG2 cells by measuring quinolylated lysine residues at proteins at 20 uM measured after 24 hrs by nano LC/MS/MS analysis; format: ADME, subcellular
[10] = Drug localization in endoplasmic reticulum of human HepG2 cells by measuring quinolylated lysine residues at proteins at 20 uM measured after 24 hrs by nano LC/MS/MS analysis; format: ADME, cell-based; details: hepg2, 24 h
[11] = Drug localization in golgi apparatus of human HepG2 cells by measuring quinolylated lysine residues at proteins at 20 uM measured after 24 hrs by nano LC/MS/MS analysis; format: ADME, cell-based; details: hepg2, 24 h
[12] = system: HepG2; assay: Cytotoxicity against human HepG2 cells assessed as inhibition of cell viability at 25 uM measured after 48 hrs by CCK-8 assay; format: functional

SMILES	IC50 [1] [µM]	IC50 [2] [µM]	Drug uptake [3] [%]	Drug uptake [4] [%]	Drug uptake [5] [%]	Drug uptake [6] [%]	Drug uptake [7] [%]	Drug uptake [8] [%]	Drug uptake [9] [%]	Drug uptake [10] [%]	Drug uptake [11] [%]	Activity [12] [%]
C#Cc1ccc2c(ccc3[n+]2C(OC)C[Se]3)c1 (stereo unspecified)	3.66	75	22.61	11.88	11.11	2.3	15.71	2.3	19.16	1.53	1.53	
C#Cc1ccc2c(ccc3[n+]2C(OC)CS3)c1 (stereo unspecified)			27.19	8.77	7.02	3.51	14.04	2.63	17.54	4.39	5.26	
COC1CSc2ccc3cc(C(=O)NCCCCCN4C(=O)c5cccc6c(N(C)C)ccc(c56)C4=O)ccc3[n+]21.Cl.[Cl-] (stereo unspecified)												90
